“Also recorded” adds a separate entry of the source. Read-outs that look alike come from different tables or passages of the source.
Molecular target: bacterial AGPPase (Escherichia coli, UniProt Q93K97, L2V/N6S)
Type: biochemical

Chain of bacterial AGPPase (Q93K97 whole entry L2V/N6S, looked up): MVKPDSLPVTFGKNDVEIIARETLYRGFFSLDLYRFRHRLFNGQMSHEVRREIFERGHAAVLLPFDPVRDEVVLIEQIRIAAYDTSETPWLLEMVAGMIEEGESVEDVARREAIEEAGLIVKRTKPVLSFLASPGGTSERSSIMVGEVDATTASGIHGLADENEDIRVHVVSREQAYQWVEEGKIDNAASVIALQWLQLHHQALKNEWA

| SMILES | inhibition of AGPPase | hydrolysis / recognition as substrate by AGPPase (pH 7.5) | also measured |
| --- | --- | --- | --- |
| O=C(O)[C@H](O)COP(=O)(O)O [3-phosphoglycerate] | Inhibited | does not hydrolyze | – |
| Nc1ncnc2c1ncn2[C@@H]1O[C@H](COP(=O)(O)OP(=O)(O)O[C@H]2O[C@H](CO)[C@@H](O)[C@H](O)[C@H]2O)[C@@H](O)[C@H]1O [ADPG, ADPglucose] | – | catalyzes the hydrolysis | – |
| Nc1ncnc2c1ncn2[C@@H]1O[C@H](COP(=O)(O)OP(=O)(O)O)[C@@H](O)[C@H]1O [ADP] | Inhibited | – | – |
| Nc1ncnc2c1ncn2[C@@H]1O[C@H](COP(=O)(O)OP(=O)(O)O[C@H]2O[C@H](CO)[C@@H](O)[C@H](O)[C@@H]2O)[C@@H](O)[C@H]1O [ADPmannose] | – | recognizes; also recorded: hydrolyzes | – |
| Nc1ncnc2c1ncn2[C@@H]1O[C@H](COP(=O)(O)OP(=O)(O)OC[C@H]2OC(O)[C@H](O)[C@@H]2O)[C@@H](O)[C@H]1O (stereo partly drawn) [ADPribose] | – | recognizes; also recorded: hydrolyzes | – |
| Nc1ncnc2c1ncn2[C@@H]1O[C@H](COP(=O)(O)O)[C@@H](O)[C@H]1O [AMP] | Inhibited | does not hydrolyze | – |
| Nc1ncnc2c1ncn2[C@@H]1O[C@H](COP(=O)(O)OP(=O)(O)OP(=O)(O)O)[C@@H](O)[C@H]1O [ATP] | Inhibited | – | – |
| O=C(O)CN(CCN(CC(=O)O)CC(=O)O)CC(=O)O [EDTA] | – | – | AGPPase activity affected by reducing and chelating agents: adversely affected |
| O=P(O)(O)O[C@H]1O[C@H](CO)[C@@H](O)[C@H](O)[C@H]1O [G1P, glucose-1-phosphate] | – | does not hydrolyze | – |
| O=C[C@H](O)[C@@H](O)[C@H](O)[C@H](O)COP(=O)(O)O [G6P, glucose-6-phosphate] | – | does not hydrolyze | – |
| Nc1nc2c(ncn2[C@@H]2O[C@H](COP(=O)(O)OP(=O)(O)O[C@H]3O[C@H](CO)[C@@H](O)[C@H](O)[C@@H]3O)[C@@H](O)[C@H]2O)c(=O)[nH]1 [GDPmannose] | – | does not recognize | – |
| O=C(O)[C@H]1O[C@H](OP(=O)(O)OP(=O)(O)OC[C@H]2O[C@@H](n3ccc(=O)[nH]c3=O)[C@H](O)[C@@H]2O)[C@H](O)[C@@H](O)[C@@H]1O [UDPglucuronic] | – | does not recognize | – |
| O=[N+]([O-])c1ccc(OP(=O)(O)Oc2ccc([N+](=O)[O-])cc2)cc1 [bis-paranitrophenyl-phosphate] | – | does not hydrolyze | – |
| Nc1ncnc2c1ncn2[C@@H]1O[C@@H]2COP(=O)(O)O[C@H]2[C@H]1O [cyclic AMP] | – | – | hydrolysis / recognition as substrate by AGPPase (37° C., Tris-HCl 50 mM pH 7.5, 5 mM MgCl2): Nor does it hydrolyze |
| N[C@@H](CCC(=O)O)C(=O)O [glutamate] | – | – | AGPPase activity affected by reducing and chelating agents: adversely affected |
| O=P(O)(O)OP(=O)(O)O [inorganic pyrophosphate] | Inhibited | – | – |
| [Mg+2] [magnesium] | – | – | requirement for optimum functioning of AGPPase: requires |
| [O]=[Mo](=[O])([O-])[O-] [molybdate] | strongly inhibited; also recorded: Inhibited strongly | – | – |
| O=P(O)(O)O [orthophosphate] | not | – | – |
| N[C@@H](CS)C(=O)O [reduced cysteine] | – | – | AGPPase activity affected by reducing and chelating agents: adversely affected |
| N[C@@H](CCC(=O)N[C@@H](CS)C(=O)NCC(=O)O)C(=O)O [reduced glutathione] | – | – | AGPPase activity affected by reducing and chelating agents: adversely affected |
| OCCS [β-mercaptoethanol] | – | – | AGPPase activity affected by reducing and chelating agents: adversely affected |

From patent publication US20050181473A1, “Bacterial adpglucose pyrophospatase method for obtaining the latter and its use in the production of assay devices and in the obtention of transgenic plants and bacteria” (priority 2001, published 2005)
